In brackets after ≈: the same amount, converted by molar mass. Where two headings read alike, the source gives them in different places.
Tests used:
[1] = tested on: Pseudomonas aeruginosa; experiment: MIC with/without PMBN, Pseudomonas aeruginosa; format: cell-based
Description: (§1) The MIC of the rhodanines and control antibiotics, in the presence of a sub-inhibitory concentration of colistin or polymixin B nonapeptide (PMBN), against Gram-negative bacteria was evaluated as described before. The antibacterial activity of the rhodanines was further investigated against E. coli SM1411Δ acrAB, a strain that is deficient in the multidrug-resistant AcrAB efflux pump, as described before.

[2] = tested on: Acinetobacter baumannii; experiment: MIC with/without PMBN, Acinetobacter baumannii; format: cell-based
Description: as §1

[3] = tested on: Escherichia coli Δ acrAB; experiment: MIC against E. coli 1411 and AcrAB efflux pump deficient E. coli SM1411Δ acrAB; format: cell-based
Description: as §1

[4] = tested on: Klebsiella pneumoniae; experiment: MIC with/without sub-MIC colistin, Klebsiella pneumoniae; format: cell-based
Description: as §1

[5] = tested on: Acinetobacter baumannii; experiment: MIC with/without sub-MIC colistin, Acinetobacter baumannii; format: cell-based
Description: as §1

[6] = tested on: MRSA USA300; experiment: MIC against MRSA USA300 with and without 4% human serum albumin; format: cell-based, Staphylococcus aureus; details: Staphylococcus aureus, read-out: MIC against MRSA USA300
Description: The minimum inhibitory concentration (MIC) and the minimum bactericidal concentration (MBC) of rhodanine compounds 1 to 7 were determined against various Gram-positive and Gram-negative pathogens (S1 Table) following the guidelines of the Clinical and Laboratory Standards Institute (CLSI)[4]. The broth microdilution technique was used, followed by subculturing on agar plates that were rhodanine—free. […] The MICs reported represent the lowest concentration of each compound necessary to inhibit bacterial growth and the MBCs represent the lowest concentration required to reduce the initial bacterial inoculum by ≥ 99.9%.
The antimicrobial activity of rhodanine compounds in the presence of 4% human serum albumin (HSA) was tested against MRSA USA300. The MICs of rhodanine compounds and control antibiotics (vancomycin and daptomycin) were tested as described in the methods above using tryptic soy broth spiked with 4% HSA. We also synthesized and tested three more compounds, ethyl ester and amide of rhodanine 2 (Rh 8 and Rh 10, respectively) and ethyl ester of rhodanine 3 (Rh 9) to determine the influence of a carboxyl group modification toward anti-MRSA activity and human serum albumin (HSA) binding.

[7] = tested on: Escherichia coli O157:H7; experiment: MIC with/without PMBN, Escherichia coli O157:H7; format: cell-based
Description: as §1

[8] = tested on: Escherichia coli O157:H7; experiment: MIC with/without sub-MIC colistin, Escherichia coli O157:H7; format: cell-based
Description: as §1

[9] = tested on: Pseudomonas aeruginosa; experiment: MIC with/without sub-MIC colistin, Pseudomonas aeruginosa; format: cell-based
Description: as §1

[10] = tested on: Klebsiella pneumoniae; experiment: MIC with/without PMBN, Klebsiella pneumoniae; format: cell-based
Description: as §1

[11] = tested on: Salmonella Typhimurium; experiment: MIC with/without sub-MIC colistin, Salmonella Typhimurium; format: cell-based
Description: as §1

[12] = tested on: Salmonella Typhimurium; experiment: MIC with/without PMBN, Salmonella Typhimurium; format: cell-based
Description: as §1

[13] = tested on: Mycobacterium smegmatis; experiment: Broth microdilution MIC/MBC, Mycobacterium smegmatis; format: cell-based; details: Mycolicibacterium smegmatis, ATCC14468, M. Smegmatis ATCC 14468
[14] = Pseudomonas aeruginosa ATCC 9721, PMBN (+) 4 μg/mL, read-out: MIC
[15] = Pseudomonas aeruginosa, ATCC9721
[16] = Acinetobacter baumannii ATCC BAA747, PMBN (+) 4 μg/mL, read-out: MIC
[17] = Acinetobacter baumannii ATCC BAA19606, PMBN (+) 4 μg/mL, read-out: MIC
[18] = Acinetobacter baumannii, ATCCBAA747
[19] = Acinetobacter baumannii, ATCCBAA19606
[20] = E.coli 1411 SM (Δ acrAB, AcrAB efflux pump deficient)
[21] = Klebsiella pneumoniae ATCC BAA 2146, colistin (+) […]
[22] = Acinetobacter baumannii ATCC BAA747, colistin (+) […], read-out: MIC
[23] = Acinetobacter baumannii ATCC BAA19606, colistin (+) […], read-out: MIC
[24] = Escherichia coli O157:H7 ATCC 35150, PMBN (+) 4 μg/mL, read-out: MIC
[25] = Escherichia coli O157:H7 ATCC 700728, PMBN (+) 4 μg/mL, read-out: MIC
[26] = Escherichia coli O157:H7 ATCC 35150, colistin (+) […], read-out: MIC
[27] = Escherichia coli O157:H7 ATCC 700728, colistin (+) […], read-out: MIC
[28] = Pseudomonas aeruginosa ATCC 921, colistin (+) […], read-out: MIC
[29] = Pseudomonas aeruginosa, ATCC921
[30] = Klebsiella pneumoniae ATCC BAA 1706, PMBN (+) 4 μg/mL
[31] = Klebsiella pneumoniae ATCC BAA 2146, PMBN (+) 4 μg/mL
[32] = Salmonella Typhimurium ATCC 700720, colistin (+) […], read-out: MIC
[33] = Salmonella enterica, ATCC 700720 / TYPHIMURIUM
[34] = Salmonella Typhimurium ATCC 700720, PMBN (+) 4 μg/mL, read-out: MIC

Structure (SMILES) | MIC [1, 14] | MIC [1, 15] | MIC [2, 16] | MIC [2, 17] | MIC [2, 18] | MIC [2, 19] | MIC ([3]; E.coli 1411) | MIC [3, 20] | MIC [4, 21] | MIC ([4]; Klebsiella pneumoniae, BAA2146) | MIC [5, 22] | MIC [5, 23] | MIC [5, 18] | MIC [5, 19] | MIC [7, 24] | MIC [7, 25] | MIC [8, 26] | MIC [8, 27] | MIC [9, 28] | MIC [9, 29] | also measured
CCCCCCCCCC(=O)N[C@@H](Cc1c[nH]c2ccccc12)C(=O)N[C@H](CC(N)=O)C(=O)N[C@@H](CC(=O)O)C(=O)N[C@@H]1C(=O)NCC(=O)N[C@@H](CCCN)C(=O)N[C@@H](CC(=O)O)C(=O)N[C@H](C)C(=O)N[C@@H](CC(=O)O)C(=O)NCC(=O)N[C@H](CO)C(=O)N[C@@H]([C@H](C)CC(=O)O)C(=O)N[C@@H](CC(=O)c2ccccc2N)C(=O)O[C@@H]1C [Daptomycin, reference compound] | >64 µM | > 128 µM | >64 µM | >64 µM | > 128 µM | > 128 µM | > 64 µM | > 64 µM | >64 µM | > 128 µM | >64 µM | >64 µM | > 128 µM | > 128 µM | >256 µM | >64 µM | >64 µM | >64 µM | >64 µM | > 128 µM | MIC ([6]; 24 h, Media TSB + 4% HSA): 64 µM; MIC ([6]; Media TSB): 4 µM (≈ 6.48 µg/mL); MIC ([7]; ATCC35150, Escherichia coli O157:H7 ATCC 35150, PMBN (-), read-out: MIC): > 256 µM; MIC ([7]; ATCC700728, Escherichia coli O157:H7 ATCC 700728, PMBN (-), read-out: MIC): > 128 µM; MIC ([8]; ATCC35150, Escherichia coli O157:H7 ATCC 35150, colistin (-), read-out: MIC): > 128 µM; MIC ([8]; ATCC700728, Escherichia coli O157:H7 ATCC 700728, colistin (-), read-out: MIC): > 128 µM; MIC [10, 30]: >64 µM; MIC [10, 31]: >64 µM; MIC ([10]; Klebsiella pneumoniae, BAA1706): > 128 µM; MIC ([10]; Klebsiella pneumoniae, BAA2146): > 128 µM; MIC [11, 32]: >64 µM; MIC [11, 33]: > 128 µM; MIC [12, 34]: >128 µM; MIC [12, 33]: > 128 µM
CO[C@H]1/C=C/O[C@@]2(C)Oc3c(C)c(O)c4c(O)c(c(/C=N/N5CCN(C)CC5)c(O)c4c3C2=O)NC(=O)/C(C)=C\C=C\[C@H](C)[C@H](O)[C@@H](C)[C@@H](O)[C@@H](C)[C@H](OC(C)=O)[C@@H]1C [Rifampicin, rifampicin, reference compound] |  |  |  |  |  |  |  |  |  |  |  |  |  |  |  |  |  |  |  |  | MBC ([13]; read-out: MBC): > 64 µM; MIC ([13]; read-out: MIC): 32 µM (≈ 26.3 µg/mL)
CC(=O)O[C@H]1C[C@@]2(C)[C@@H](C[C@@H](O)[C@H]3[C@@]4(C)CC[C@@H](O)[C@@H](C)[C@@H]4CC[C@@]32C)/C1=C(\CCC=C(C)C)C(=O)O [Fusidic acid, fusidic acid, reference compound] | 4 µM (≈ 2.07 µg/mL) | > 128 µM | 2 µM (≈ 1.03 µg/mL) | 2 µM (≈ 1.03 µg/mL) | > 128 µM | 128 µM (≈ 66.1 µg/mL) | > 64 µM | 4 µM (≈ 2.07 µg/mL) | >64 µM | > 128 µM | 1 µM (≈ 0.517 µg/mL) | ≤0.5 µM | > 128 µM | 128 µM (≈ 66.1 µg/mL) | 4 µM (≈ 2.07 µg/mL) | 32 µM (≈ 16.5 µg/mL) | ≤0.5 µM | ≤0.5 µM | >64 µM | > 128 µM | MIC ([7]; Escherichia coli, ATCC35150): > 256 µM; MIC ([7]; Escherichia coli, ATCC700728): > 128 µM; MIC ([8]; Escherichia coli, ATCC35150): > 128 µM; MIC ([8]; Escherichia coli, ATCC700728): > 128 µM; MIC [10, 30]: 16 µM (≈ 8.27 µg/mL); MIC [10, 31]: >64 µM; MIC ([10]; Klebsiella pneumoniae, BAA1706): > 128 µM; MIC ([10]; Klebsiella pneumoniae, BAA2146): > 128 µM; MIC [11, 32]: 64 µM (≈ 33.1 µg/mL); MIC [11, 33]: > 128 µM; MIC [12, 34]: 64 µM (≈ 33.1 µg/mL); MIC [12, 33]: > 128 µM

— paper PMC5053523, “In Vitro Antibacterial Activity of Rhodanine Derivatives against Pathogenic Clinical Isolates” (PLoS ONE, 2016)
